Values of other authors in patent US12156858B2, “Pharmaceutical compositions comprising levodopa, a dopamine decarboxylase inhibitor and a COMT inhibitor and method of administration thereof” (InTrance Medical Systems Inc., priority 2014, dated 2024).

Conditions: intake of levodopa alone

## N[C@@H](Cc1ccc(O)c(O)c1)C(=O)O [Levodopa, (−)-L-α-amino-β-(3,4-dihydroxybenzene) propanoic acid]
  share metabolized to dopamine before levodopa reaches the brain: more than 90%
